According to patent publication US12478628B2, “Germ cell nuclear factor ligands and methods of use thereof” (Saint Louis University, priority 2020, dated 2025):

Columns and labels:
[1] = target: T1, SF-1 (NR5A1) LBD (Homo sapiens, UniProt Q13285); test: DSF specificity assay, SF-1; format: binding
T1 construct: human SF-1 LBD (residues 219-461); hexahistidine tag with 3C protease site; made in house; host or cells: E. coli BL(21) DE3
Experimental: (§1) Protein Expression and Purification. Human GCNF (NR6A1) LBD (residues 248-480) and mutants F284A/F361A, human LRH-1 (NR5A2) LBD (residues 291-541), human RXRα LBD (residues 223-462), human COUP-TF I LBD (residues 184-410) and human SF-1 LBD (residues 219-461) were subcloned in pET45b(+) plasmid (Novagen) were expressed in E. coli BL(21) DE3 cells in terrific broth with 0.1 mg/mL ampicillin as 3C protease-cleavable hexahistidine-tagged fusion proteins. The bacterial culture was grown at 37° C. to an optical density of 0.8 to 1.0 at 600 nm. Protein expression was induced by adding 1 mM IPTG and was allowed to proceed for 14 h at 22° C. […]
(§2) DSF Assay. […] A total of 450 compounds (Life Chemicals) previously selected from a nuclear-receptor-biased library targeting REV-ERB were analyzed. Thermal stability was assessed on a Quantstudio 6 instrument (Biosystems) by ramping the temperature from 25° C. to 95° C. at 0.05° C./s and protein melt shifts were subsequently quantified by Boltzmann-derived melting temperature (Tm) using the Protein Thermal Shift (ThermoFisher) software. […]

[2] = tested on: i3 neurons differentiated from induced pluripotent stem cells (iPSCs); test: iPSC differentiation to i3 neurons, morphology; format: cell-based; parameters: neurite outgrowth: dose or concentration left out as unconfirmed; conditions: ligand treatment before and during differentiation
Experimental: iPSC Differentiation to Neurons. For growing neurons from iPSC cells, the method described by Femandopulle were employed (Femandopulle et al., 2018). Briefly, cells were treated with doxycycline to turn on expression of Neurogenin-2 (NGN2), which irreversibly sets these cells on the path of neuronal differentiation. The cells were treated with doxycycline for 3 days (changing media every day), and then re-plate the cells onto new plates coated with PLO. For each time point, 21 samples were prepared (DMSO and ligands 34 and 80 at different concentrations, in triplicate).
An overview of the experiment timeline is shown as well: • Day 0: Plate iPSC on matrigel-coated 12-well plates • Day 2: Treat cells −/+ ligands in iPSC media • Day 3: Refeed cells induction media +Doxycycline −/+ ligands to start neuronal differentiation (Day 0 of differentiation) • Day 4: Refeed cells induction media +Doxycycline −/+ ligands (Day 1 of differentiation) • Day 5: Refeed cells induction media +Doxycycline −/+ ligands (Day 2 of differentiation) • Day 6: Take pictures; Refeed cells neuronal media −/+ ligands (Day 3 of differentiation) • Day 7: Collect cells for RNA/qPCR (Day 4 of differentiation)

[3] = target: T2, RXRα LBD (Homo sapiens, UniProt P19793); test: DSF specificity assay, RXRα; format: binding
T2 construct: human RXRα LBD (residues 223-462); hexahistidine tag with 3C protease site; made in house; host or cells: E. coli BL(21) DE3
T2 sequence (P19793 223-462): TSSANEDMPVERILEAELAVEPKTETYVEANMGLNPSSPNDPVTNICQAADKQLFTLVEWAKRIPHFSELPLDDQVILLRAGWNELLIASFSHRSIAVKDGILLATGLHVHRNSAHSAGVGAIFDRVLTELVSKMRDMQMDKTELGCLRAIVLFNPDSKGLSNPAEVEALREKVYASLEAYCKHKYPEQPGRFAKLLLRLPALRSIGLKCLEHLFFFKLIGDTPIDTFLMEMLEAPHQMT
Experimental: as §1, §2

[4] = target: T3, GCNF LBD (Homo sapiens, UniProt Q15406); test: Differential scanning fluorimetry (DSF) of GCNF LBD; format: binding; conditions: 20 μM ligand; GCNF LBD Tm 41.9±0.6° C.; significance cutoff 2° C.; read-out: increase of melting temperature (ΔTm) of GCNF LBD
T3 construct: Human GCNF (NR6A1) LBD (residues 248-480); made in house; host or cells: E. coli BL(21) DE3
T3 sequence (Q15406 248-480): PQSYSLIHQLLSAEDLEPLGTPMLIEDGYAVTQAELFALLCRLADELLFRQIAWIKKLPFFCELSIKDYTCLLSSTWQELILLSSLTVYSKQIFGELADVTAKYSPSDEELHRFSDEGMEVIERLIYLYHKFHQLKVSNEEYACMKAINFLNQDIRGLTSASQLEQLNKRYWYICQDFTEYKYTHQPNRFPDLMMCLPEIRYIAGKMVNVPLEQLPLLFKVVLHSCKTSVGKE
Experimental: DSF Assay. GCNF LBD (5 μM) were mixed with 1× Sypro orange (Invitrogen) in DSF buffer (50 mM HEPES, 50 mM KCl, 5 mM TCEP, 0.5 mM EDTA, pH 7.5). Test compounds was added at 1:1 molar equivalence as protein or replaced with DMSO control. Ten microliters (10 μL)×5 replicates for each sample were plated on 384-well PCR microplate. No protein control and no ligand references were also run simultaneously in 5 replicates on the same plate. A total of 450 compounds (Life Chemicals) previously selected from a nuclear-receptor-biased library targeting REV-ERB were analyzed. Thermal stability was assessed on a Quantstudio 6 instrument (Biosystems) by ramping the temperature from 25° C. to 95° C. at 0.05° C./s and protein melt shifts were subsequently quantified by Boltzmann-derived melting temperature (Tm) using the Protein Thermal Shift (ThermoFisher) software. Positive hits were identified when a thermal shift (ΔTm) of at least 2° C. was observed.
For the DSF ligand titration assay, ligands 30, 34 and 80 were titrated against 5 μM GCNF LBD with a ligand concentration series of 30, 20, 13, 9, 6, 4, 2.6, 1.7 and 0 μM from a 20 mM DMSO stock solution. DSF assay and analysis was then performed as described above. All DSF data were reported as mean±SEM.

T1 sequence (Q13285 219-461): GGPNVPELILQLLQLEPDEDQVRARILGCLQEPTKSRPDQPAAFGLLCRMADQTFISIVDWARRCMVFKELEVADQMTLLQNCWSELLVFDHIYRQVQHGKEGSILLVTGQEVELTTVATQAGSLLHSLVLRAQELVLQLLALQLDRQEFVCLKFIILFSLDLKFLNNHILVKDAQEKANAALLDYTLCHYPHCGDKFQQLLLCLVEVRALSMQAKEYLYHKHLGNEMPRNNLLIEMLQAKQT

change of Tm of SF-1 LBD [1]	change of Tm of RXRα LBD [3]	ΔTm at 20 µM [4] [°C]	SMILES	area of cell bodies [2]	neurite branching [2]	neurite outgrowth [2]
did not significantly change	did not significantly change		Cc1ccc(-n2ncc3c(N4CCOCC4)nc(NCc4ccco4)nc32)cc1 [Ligand 34, N-[(furan-2-yl)methyl]-1-(4-methylphenyl)-4-(morpholin-4-yl)-1H-pyrazolo[3,4-d]pyrimidin-6-amine]	remain unchanged	more extensive branching	significant increase of neurite outgrowth
did not significantly change	did not significantly change	> 2	O=C(Cn1cc(S(=O)(=O)c2ccccc2)c2ccccc21)N1CCc2ccccc21 [Ligand 80, 2-[3-(benzenesulfonyl)-1H-indol-1-yl]-1-(2,3-dihydro-1H-indol-1-yl)ethan-1-one]	remain unchanged	more extensive branching	significant increase of neurite outgrowth
